The results in this text go back to patent US12295967B2, “Pharmaceutical composition for prevention or treatment of flavivirus infection” (priority 2018, dated 2025).

One may read the IC50 as the concentration needed to halve the response being measured.

Starred links: 1 amine or outer side, 2 acyl side, 3 side chain; linkers in the order of their positions; H or OH if unused. Positions of bridges follow the written chain, without caps; N, C: chain ends. Non-standard residues stand in square brackets, D forms with d. Residues, ends and D or L forms follow the SMILES beside them. *: point of attachment. hTyr(3S-OH,4S-OH,3'-OSO3H) = N[C@H](C(=O)O)[C@H](O)[C@@H](O)c1ccc(O)c(OS(=O)(=O)O)c1; Orn(4R-OH,5R-OH) = O=C([C@H](C[C@@H](O)[C@@H](O)N[*:3])N[*:1])[*:2]; Pro(3S-OH,4S-Me) = C[C@H]1CN[C@H](C(=O)O)[C@H]1O; X1 = CCCCCOc1ccc(-c2cc(-c3ccc(C(=O)*)cc3)no2)cc1; Gln(3R-OH) = NC(=O)C[C@@H](O)[C@H](N)C(=O)O; Hyp = O=C(O)[C@@H]1C[C@@H](O)CN1

T1 sequence (P29990 1476-2093): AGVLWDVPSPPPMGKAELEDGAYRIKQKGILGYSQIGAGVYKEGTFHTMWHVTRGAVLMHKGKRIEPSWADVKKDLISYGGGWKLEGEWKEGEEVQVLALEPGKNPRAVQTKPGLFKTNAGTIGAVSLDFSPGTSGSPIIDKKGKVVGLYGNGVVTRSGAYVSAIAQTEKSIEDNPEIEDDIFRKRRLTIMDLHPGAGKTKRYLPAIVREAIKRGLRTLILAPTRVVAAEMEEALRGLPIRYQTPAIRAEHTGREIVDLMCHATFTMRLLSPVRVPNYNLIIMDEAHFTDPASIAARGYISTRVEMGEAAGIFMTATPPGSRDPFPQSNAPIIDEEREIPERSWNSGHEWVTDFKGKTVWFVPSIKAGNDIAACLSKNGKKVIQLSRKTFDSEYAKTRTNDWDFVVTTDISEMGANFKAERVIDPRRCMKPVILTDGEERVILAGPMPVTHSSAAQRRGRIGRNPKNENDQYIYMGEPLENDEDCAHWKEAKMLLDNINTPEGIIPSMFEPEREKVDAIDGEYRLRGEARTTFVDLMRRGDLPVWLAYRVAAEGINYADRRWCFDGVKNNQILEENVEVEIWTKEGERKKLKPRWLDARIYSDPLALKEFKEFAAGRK

The first test has as its target T1, dengue virus helicase (Dengue virus type 2, UniProt P29990).
T1 construct: dengue virus helicase activity
Briefly: Inhibition of dengue virus helicase activity. It counts as biochemical.
Settings: not given
An excerpt:
A degree of inhibition of dengue virus helicase activity depending on the concentrations of 6 compounds was confirmed (IC50 values presented, FIG. 4).
Take `CC(=O)OCC1=C(C(=O)O)N2C(=O)[C@@H](NC(=O)Cc3cccs3)[C@H]2SC1` [Cephalothin]: the 50% inhibitory concentration (IC50) stood at 26 µM.

With `O=C1Nc2ccc(Cl)cc2[C@@](C#CC2CC2)(C(F)(F)F)O1` [Efavirenz], the half-maximal inhibitory concentration (IC50) amounted to 38.5 µM.

`CCCCCOc1ccc(-c2cc(-c3ccc(C(=O)N[C@H]4C[C@@H](O)[C@@H](O)NC(=O)[C@@H]5[C@@H](O)[C@@H](C)CN5C(=O)[C@H]([C@H](O)CC(N)=O)NC(=O)[C@H]([C@H](O)[C@@H](O)c5ccc(O)c(OS(=O)(=O)O)c5)NC(=O)[C@@H]5C[C@@H](O)CN5C(=O)[C@H]([C@@H](C)O)NC4=O)cc3)no2)cc1` [Micafungin] (X1-[Orn(4R-OH,5R-OH)]T[Hyp][hTyr(3S-OH,4S-OH,3'-OSO3H)][Gln(3R-OH)][Pro(3S-OH,4S-Me)]; lactam 1-C) yielded an IC50 of 5 µM.

Staying with this test, now noted: dengue virus helicase activity; read-out: IC50, inhibitory target enzyme Helicase.
Consider `C[C@@H]1[C@H](O)[C@@H](C)/C=C/C=C/CC/C=C/C=C/C=C/C=C/C(O[C@H]2O[C@H](C)[C@@H](O)[C@H](N)[C@@H]2O)CC2O[C@](O)(CC(O)C(O)CCC(O)CC(O)CC(O)CC(=O)O[C@H]1C)CC(O)C2C(=O)O` (stereo partly shown) [Nystatin], for which the IC50 turned out to be 13.1 µM.

With Bleomycin, the 50% inhibitory concentration (IC50) was 1.4 µM.

Take `CCCCCCCCCCCCCCCCOP(=O)([O-])OCC[N+](C)(C)C` [Miltefosine]: the half-maximal inhibitory concentration (IC50) turned out to be 17.5 µM.

The target of another test is T2, dengue virus RdRp (Dengue virus type 2, UniProt P29990).
T2 construct: dengue virus RdRp enzyme activity
T2 sequence (P29990 2492-3391): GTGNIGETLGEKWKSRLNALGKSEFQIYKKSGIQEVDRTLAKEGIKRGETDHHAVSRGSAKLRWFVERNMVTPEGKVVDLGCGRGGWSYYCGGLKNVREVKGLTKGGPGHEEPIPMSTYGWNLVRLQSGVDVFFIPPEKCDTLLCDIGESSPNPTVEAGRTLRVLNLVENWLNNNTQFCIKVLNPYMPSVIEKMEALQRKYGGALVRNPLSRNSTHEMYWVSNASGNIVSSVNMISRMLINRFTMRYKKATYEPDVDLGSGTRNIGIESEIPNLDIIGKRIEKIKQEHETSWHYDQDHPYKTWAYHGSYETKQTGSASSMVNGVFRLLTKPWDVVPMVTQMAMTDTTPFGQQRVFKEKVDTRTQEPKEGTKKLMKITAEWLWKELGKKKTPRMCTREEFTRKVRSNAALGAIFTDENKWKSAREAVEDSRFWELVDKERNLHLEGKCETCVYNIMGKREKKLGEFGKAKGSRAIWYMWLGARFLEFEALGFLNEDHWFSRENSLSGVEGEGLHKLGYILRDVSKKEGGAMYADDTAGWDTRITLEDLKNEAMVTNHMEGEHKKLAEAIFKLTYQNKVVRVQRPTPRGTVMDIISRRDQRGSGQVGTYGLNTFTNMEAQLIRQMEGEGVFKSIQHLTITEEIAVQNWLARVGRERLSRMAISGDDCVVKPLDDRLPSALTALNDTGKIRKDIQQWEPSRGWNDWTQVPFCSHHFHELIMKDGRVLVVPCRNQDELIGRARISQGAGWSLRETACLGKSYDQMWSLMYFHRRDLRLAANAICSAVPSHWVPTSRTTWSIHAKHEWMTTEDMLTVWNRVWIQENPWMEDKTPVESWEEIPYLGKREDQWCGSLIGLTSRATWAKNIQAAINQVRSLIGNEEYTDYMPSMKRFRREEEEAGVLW
Briefly: biochemical. The settings on record: dengue virus RdRp enzyme activity; read-out: IC50, inhibitory target enzyme RdRp.
For `CCN[C@@H]1C[C@H](N)[C@@H](O[C@H]2OC(CN)=CC[C@H]2N)[C@H](O)[C@H]1O[C@H]1OC[C@](C)(O)[C@H](NC)[C@H]1O` [Netimicin], the IC50 was determined as 2.9 µM.

As for `[NH2][Pt]1([NH2])[O]CC(=O)[O]1` [Nedaplatin], the concentration for half-maximal inhibition (IC50) stood at 86.4 µM.

In the case of `NC[C@H]1O[C@H](O[C@H]2[C@H](O)[C@@H](O[C@H]3O[C@H](CO)[C@@H](O)[C@H](N)[C@H]3O)[C@H](N)C[C@@H]2N)[C@H](N)C[C@@H]1O` [Tobramycin], the concentration for half-maximal inhibition (IC50) is 3 µM.

On to Gentamicin Sulfate, for which the concentration for half-maximal inhibition (IC50) came out at 2.3 µM.

Take `NCC[C@H](O)C(=O)N[C@@H]1C[C@H](N)[C@@H](O[C@H]2O[C@H](CN)[C@@H](O)[C@H](O)[C@H]2O)[C@H](O)[C@H]1O[C@H]1O[C@H](CO)[C@@H](O)[C@H](N)[C@H]1O` [Amikacin]: the IC50 worked out at 24.3 µM.

Regarding `CN(C)Cc1ccc(S(=O)(=O)n2ccc(/C=C/C(=O)NO)c2)cc1` [Resminostat], the 50% inhibitory concentration (IC50) worked out at 64.5 µM.

As for `NC[C@@H]1O[C@H](O[C@H]2[C@@H](O)[C@H](O[C@@H]3[C@@H](O)[C@H](N)C[C@H](N)[C@H]3O[C@H]3O[C@H](CO)[C@@H](O)[C@H](O)[C@H]3N)O[C@@H]2CO)[C@H](N)[C@@H](O)[C@@H]1O` [Paromomycin], the IC50 was 4.5 µM.

For `CN1CCN(CCCN2c3ccccc3Sc3ccc(C(F)(F)F)cc32)CC1` [Trifluoperazine], the IC50 was 22.1 µM.

As to `CN[C@@H]1[C@H](O[C@H]2[C@H](O[C@H]3[C@H](O)[C@@H](O)[C@H](NC(=N)N)[C@@H](O)[C@@H]3NC(=N)N)O[C@@H](C)[C@]2(O)CO)O[C@@H](CO)[C@H](O)[C@H]1O` [Dihydrostreptomycin], the 50% inhibitory concentration (IC50) stood at 18.4 µM.

Turning to `CCN(CCO)CCCC(C)Nc1ccnc2cc(Cl)ccc12` (stereo not shown) [Hydroxychloroquine], the half-maximal inhibitory concentration (IC50) was found to be 96 µM.

Take Capreomycin: the IC50 was determined as 5.7 µM.

Another test relates to DENV. Briefly: DENV viremia reduction in mouse blood, dengue infection model (AG129 mouse). It counts as in vivo. The settings on record: micafungin sodium IP, miltefosine oral, FIG. 5. The method, then: On day 3, blood was collected from each mouse and transferred to an EDTA coated anticoagulant tube. After shaking for 10 minutes and gently mixing, 20 μl of each sample was analyzed by whole blood count using HEMAVET 950FS (Drew Scientific). The measured value of each factor was semi-quantified relative to that of the uninfected control. Plasma was isolated by centrifugation at 8000 g and 4° C. for 15 minutes in order to analyze cytokine hyperemia and expression changes. Plasma virus titer (viremia) and viral RNA expression in whole blood were analyzed by quantitative real-time PCR (qRT-PCR).
For target gene amplification, each primer was designed taking into account overlap between two exons of the target gene having a GC content of less than 50% and an expected amplicon size of about 100 bps. For quantification of viral RNA, quantitative real time PCR (qRT-PCR) was performed. Each reaction was performed in 20 μL volume using SYBR green master mix. Quantstudio 3™ (Applied Biosystems Inc., USA) was used for the present study in two-stage amplification process. […]
Virus in plasma was calculated according to an equation of standard curve. […] For cell-based group and mouse organ samples (including whole blood), semi-quantitative viral RNA was analyzed for GAPDH as an endogenous control. […]
As for `CCCCCOc1ccc(-c2cc(-c3ccc(C(=O)N[C@H]4C[C@@H](O)[C@@H](O)NC(=O)[C@@H]5[C@@H](O)[C@@H](C)CN5C(=O)[C@H]([C@H](O)CC(N)=O)NC(=O)[C@H]([C@H](O)[C@@H](O)c5ccc(O)c(OS(=O)(=O)O)c5)NC(=O)[C@@H]5C[C@@H](O)CN5C(=O)[C@H]([C@@H](C)O)NC4=O)cc3)no2)cc1` [Micafungin] (X1-[Orn(4R-OH,5R-OH)]T[Hyp][hTyr(3S-OH,4S-OH,3'-OSO3H)][Gln(3R-OH)][Pro(3S-OH,4S-Me)]; lactam 1-C), the dengue viremia result is listed as “significantly reduced”.

For the compound `CCCCCCCCCCCCCCCCOP(=O)([O-])OCC[N+](C)(C)C` [Miltefosine], the dengue viremia result is reported as “significantly reduced”.
